Tested on: NHBE cells
Test: Biolog metabolic array: substrate use by NHBE cells with or without CA09 infection
Format: cell-based, human
Details: for Substrate use, 590 nm absorbance normalized to zero hour, 0 hr: Biolog PMM2, 0 hr; for Substrate use, 590 nm absorbance normalized to zero hour, 1 hr: Biolog PMM2, 1 hr; for Substrate use, 590 nm absorbance normalized to zero hour, 5 hr: Biolog PMM2, 5 hr; for Substrate use, 590 nm absorbance normalized to zero hour, 7 hr: Biolog PMM2, 7 hr
[1] = Control (uninfected) NHBE cells
[2] = Virus (CA09-infected, MOI 1) NHBE cells
[3] = Virus: CA09-infected NHBE cells, MOI 1, Biolog PMM2
[4] = Virus (CA09-infected NHBE cells, MOI 1)

SMILES	590 nm absorbance normalized to zero hour (substrate use), 0 hr [1]	590 nm absorbance normalized to zero hour (substrate use), 1 hr [1]	590 nm absorbance normalized to zero hour (substrate use), 2 hr [1]	590 nm absorbance normalized to zero hour (substrate use), 3 hr [1]	590 nm absorbance normalized to zero hour (substrate use), 4 hr [1]	590 nm absorbance normalized to zero hour (substrate use), 6 hr [1]	590 nm absorbance normalized to zero hour (substrate use), 8 hr [1]	590 nm absorbance normalized to zero hour (substrate use), 9 hr [1]	590 nm absorbance normalized to zero hour (substrate use), 10 hr [1]	590 nm absorbance normalized to zero hour (substrate use), 11 hr [1]	Substrate use, 590 nm absorbance normalized to zero hour, 0 hr [1]	Substrate use, 590 nm absorbance normalized to zero hour, 1 hr [1]	Substrate use, 590 nm absorbance normalized to zero hour, 5 hr [1]	Substrate use, 590 nm absorbance normalized to zero hour, 7 hr [1]	590 nm absorbance normalized to zero hour (substrate use), 0 hr [3]	590 nm absorbance normalized to zero hour (substrate use), 1 hr [3]	590 nm absorbance normalized to zero hour (substrate use), 2 hr [3]	590 nm absorbance normalized to zero hour (substrate use), 3 hr [3]	590 nm absorbance normalized to zero hour (substrate use), 4 hr [3]	590 nm absorbance normalized to zero hour (substrate use), 5 hr [3]	further results
OC[C@@]12OC[C@@H](O1)[C@@H](O)[C@@H](O)[C@@H]2O [Sedoheptulosan]	1.00	0.31	0.41	0.44	0.49	0.56	0.71	0.82	0.89	1.46	1.00	0.31	0.61	0.71	1.00	1.49	1.48	1.46	1.43	1.30	590 nm absorbance normalized to zero hour (substrate use), 0 hr [2]: 1.00; 590 nm absorbance normalized to zero hour (substrate use), 1 hr [2]: 1.49; 590 nm absorbance normalized to zero hour (substrate use), 2 hr [2]: 1.48; 590 nm absorbance normalized to zero hour (substrate use), 3 hr [2]: 1.46; 590 nm absorbance normalized to zero hour (substrate use), 4 hr [2]: 1.43; 590 nm absorbance normalized to zero hour (substrate use), 5 hr [2]: 1.30; 590 nm absorbance normalized to zero hour (substrate use), 6 hr [2]: 1.36; 590 nm absorbance normalized to zero hour (substrate use), 7 hr [2]: 1.39; 590 nm absorbance normalized to zero hour (substrate use), 8 hr [2]: 1.49; 590 nm absorbance normalized to zero hour (substrate use), 9 hr [2]: 1.58; 590 nm absorbance normalized to zero hour (substrate use), 10 hr [2]: 1.48; 590 nm absorbance normalized to zero hour (substrate use), 11 hr [2]: 1.65; 590 nm absorbance normalized to zero hour (substrate use), 6 hr [3]: 1.36; 590 nm absorbance normalized to zero hour (substrate use), 7 hr [3]: 1.39; 590 nm absorbance normalized to zero hour (substrate use), 8 hr [3]: 1.49; 590 nm absorbance normalized to zero hour (substrate use), 9 hr [3]: 1.58; 590 nm absorbance normalized to zero hour (substrate use), 10 hr [3]: 1.48; 590 nm absorbance normalized to zero hour (substrate use), 11 hr [3]: 1.65
OC[C@H]1O[C@H](O[C@H]2O[C@H](CO)[C@@H](O)[C@H](O)[C@H]2O)[C@H](O)[C@@H](O)[C@@H]1O [D-Trehalose]	1.00	1.68	2.24	2.70	2.88	3.69	4.74	5.11	4.09	4.60	1.00	1.68	3.48	4.20	1.00	1.66	2.04	2.20	2.27	2.52	590 nm absorbance normalized to zero hour (substrate use), 0 hr [2]: 1.00; 590 nm absorbance normalized to zero hour (substrate use), 1 hr [2]: 1.66; 590 nm absorbance normalized to zero hour (substrate use), 2 hr [2]: 2.04; 590 nm absorbance normalized to zero hour (substrate use), 3 hr [2]: 2.20; 590 nm absorbance normalized to zero hour (substrate use), 4 hr [2]: 2.27; 590 nm absorbance normalized to zero hour (substrate use), 5 hr [2]: 2.52; 590 nm absorbance normalized to zero hour (substrate use), 6 hr [2]: 2.66; 590 nm absorbance normalized to zero hour (substrate use), 7 hr [2]: 2.79; 590 nm absorbance normalized to zero hour (substrate use), 8 hr [2]: 2.93; 590 nm absorbance normalized to zero hour (substrate use), 9 hr [2]: 3.11; 590 nm absorbance normalized to zero hour (substrate use), 10 hr [2]: 3.25; 590 nm absorbance normalized to zero hour (substrate use), 11 hr [2]: 3.07; 590 nm absorbance normalized to zero hour (substrate use), 6 hr [3]: 2.66; 590 nm absorbance normalized to zero hour (substrate use), 7 hr [3]: 2.79; 590 nm absorbance normalized to zero hour (substrate use), 8 hr [3]: 2.93; 590 nm absorbance normalized to zero hour (substrate use), 9 hr [3]: 3.11; 590 nm absorbance normalized to zero hour (substrate use), 10 hr [3]: 3.25; 590 nm absorbance normalized to zero hour (substrate use), 11 hr [3]: 3.07
O=C(O)C(O)C(O)C(=O)O (stereo not drawn) [m-Tartaric Acid]	1.00	1.39	1.72	2.14	2.16	3.24	2.82	2.95	2.65	2.75	1.00	1.39	2.42	2.70	1.00	1.50	1.66	1.90	1.96	2.05	590 nm absorbance normalized to zero hour (substrate use), 0 hr [4]: 1.00; 590 nm absorbance normalized to zero hour (substrate use), 1 hr [4]: 1.50; 590 nm absorbance normalized to zero hour (substrate use), 2 hr [4]: 1.66; 590 nm absorbance normalized to zero hour (substrate use), 3 hr [4]: 1.90; 590 nm absorbance normalized to zero hour (substrate use), 4 hr [4]: 1.96; 590 nm absorbance normalized to zero hour (substrate use), 5 hr [4]: 2.05; 590 nm absorbance normalized to zero hour (substrate use), 6 hr [4]: 2.17; 590 nm absorbance normalized to zero hour (substrate use), 7 hr [4]: 2.23; 590 nm absorbance normalized to zero hour (substrate use), 8 hr [4]: 2.28; 590 nm absorbance normalized to zero hour (substrate use), 9 hr [4]: 2.43; 590 nm absorbance normalized to zero hour (substrate use), 10 hr [4]: 2.40; 590 nm absorbance normalized to zero hour (substrate use), 11 hr [4]: 2.41; 590 nm absorbance normalized to zero hour (substrate use), 6 hr [3]: 2.17; 590 nm absorbance normalized to zero hour (substrate use), 7 hr [3]: 2.23; 590 nm absorbance normalized to zero hour (substrate use), 8 hr [3]: 2.28; 590 nm absorbance normalized to zero hour (substrate use), 9 hr [3]: 2.43; 590 nm absorbance normalized to zero hour (substrate use), 10 hr [3]: 2.40; 590 nm absorbance normalized to zero hour (substrate use), 11 hr [3]: 2.41

Reference: patent US11083725B2 (priority 2014, dated 2021)
